Experimental data as given in ChEMBL document CHEMBL1150869, “Bombardolides: new antifungal and antibacterial gamma-lactones from the coprophilous fungus Bombardioidea anartia” (2001).

Key:
Format in all cases: functional
Conditions in all cases: read-out: IZ
Bacillus subtilis = assay: Antimicrobial activity against Bacillus subtilis ATCC 6051 at 200 ug/disk by standard disk diffusion method
Candida albicans = assay: Antimicrobial activity against Candida albicans ATCC 10231 at 200 ug/disk by standard disk diffusion method
Staphylococcus aureus = assay: Antimicrobial activity against Staphylococcus aureus ATCC 29213 at 200 ug/disk by standard disk diffusion method

Compound	zone of inhibition at 200 µg/disc (Bacillus subtilis) [mm]	zone of inhibition at 200 µg/disc (Candida albicans) [mm]	zone of inhibition at 200 µg/disc (Staphylococcus aureus) [mm]
CC/C=C1/C=C(CCCO)C(=O)O1 [(E/Z)-BOMBARDOLIDE B]	11		
CCCC1C=C(/C=C/CO)C(=O)O1 (centres undefined) [BOMBARDOLIDE D]		20	
CC/C=C1C=C(/C=C/C(=O)O)C(=O)O/1	26		18
CCCCC(O)c1cccc(O)c1 (centres undefined)	12		19
CC/C=C1C=C(/C=C/CO)C(=O)O/1	19	35	14
